Assay results from patent US20060069132A1, “Azolecarboxamide herbicides” (priority 2004, published 2006).

Assays:
[1] = tested on: transplanted rice seedlings; assay: Test D flooded paddy test; assay type: in vivo, Oryza sativa; settings: 21 days, scale 0 to 100
From the text: (§1) Three plastic pots (ca. 16-cm diameter) per rate were partially filled with sterilized Tama silt loam soil comprising a 35:50:15 ratio of sand, silt and clay and 2.6% organic matter. Separate plantings for each of the three pots were as follows. Seeds from the U.S. of ducksalad (Heteranthera limosa (Sw.) Willd.), smallflower umbrella sedge (Cyperus difformis L.) and purple redstem (Ammannia coccinea Rottb.), were planted into one 16-cm pot for each rate. Seeds from the U.S. of rice flatsedge (Cyperus iria L.), bearded sprangletop (Leptochloa fascicularis (Lam.) Gray), one stand of 9 or 10 water seeded rice seedlings (Oryza sativa L. cv. ‘Japonica—M202’), and one stand of 6 transplanted rice seedlings (Oryza sativa L. cv. ‘Japonica—M202’) were planted into one 16-cm pot for each rate. Seeds from the U.S. of barnyardgrass (Echinochloa crus-galli (L.) Beauv.), late watergrass (Echinochloa oryzicola Vasinger), early watergrass (Echinochloa oryzoides (Ard.) Fritsch) and junglerice (Echinochloa colona (L.) Link) were planted into one 16-cm pot for each rate. Plantings were sequential so that crop and weed species were at the 2.0 to 2.5-leaf stage at time of treatment.
(§2) Potted plants were grown in a greenhouse with day/night temperature settings of 29.5/26.7° C., and supplemental balanced lighting was provided to maintain a 16-hour photoperiod. Test pots were maintained in the greenhouse until test completion.
(§3) At time of treatment, test pots were flooded to 3 cm above the soil surface, treated by application of test compounds directly to the paddy water, and then maintained at that water depth for the duration of the test. Effects of treatments on rice and weeds were visually evaluated by comparison to untreated controls after 21 days. Plant response ratings are reported on a 0 to 100 scale; where 0 is no effect and 100 is complete control. A dash (-) response means no test result.

ducksalad = assay: Test D flooded paddy test; assay type: in vivo, Heteranthera limosa; settings: 21 days, scale 0 to 100
From the text: as §1, §2, §3

barnyardgrass = assay: Test D flooded paddy test; assay type: in vivo, Echinochloa crus-galli; settings: 21 days, scale 0 to 100
From the text: as §1, §2, §3

rice flatsedge = assay: Test D flooded paddy test; assay type: in vivo, Cyperus iria; settings: 21 days, scale 0 to 100
From the text: as §1, §2, §3

junglerice = assay: Test D flooded paddy test; assay type: in vivo, Echinochloa colona; settings: 21 days, scale 0 to 100
From the text: as §1, §2, §3

[2] = tested on: corn (maize) cv. Pioneer 33G26; assay: Test G safening on corn by naphthalic anhydride seed treatment, preemergence; assay type: in vivo, Zea mays
From the text: This test evaluated the safening of compounds of the invention on corn (maize; Zea mays L.) cv. ‘Pioneer 33G26’ by seed treatment with naphthalic anhydride (1,8-naphthalic anhydride). All corn seed had been first treated with fludioxonil and metaxyl applied at the manufacturer's recommended rate as per the Pioneer 33G26 label. Some of the corn seed were subsequently also treated with naphthalic anhydride as a 1% by weight seed dressing. The corn seed were planted in pots containing pasteurized Sassafras sandy loam soil, and then treatments were applied preemergence the same day. Treatments were applied by spraying the test compounds formulated in a non-phytotoxic solvent mixture, using a flat fan nozzle and a spray volume of 280 L/ha. The treatments were triply replicated and the results subsequently averaged. The pots were placed on a greenhouse bench using a complete randomized block design except for the first replicate, which was unrandomized. The plants were grown in the greenhouse and watered as needed with a dilute nutrient solution containing 200 ppm of N. Illumination was daylight supplemented by artificial sources to maintaining a photoperiod of 16 hours. The temperature was maintained at 28±2° C. during the day and 23±2° C. at night. The plant response was visually rated 25 days after treatment in comparison to untreated controls using a scale of 0 to 100, with 0 representing no effect and 100 representing complete plant death.

hairy beggarticks = assay: Test E pre-/postemergence herbicide test; assay type: in vivo, Bidens radiata; settings: Preemergence
From the text: Seeds of plant species selected from bipinnate beggarticks (Bidens bipinnata L.), hairy beggarticks (Bidens radiata Thuill.), bermudagrass (Cynodon dactylon (L.) Pers.), Surinam grass (Urochloa decumbens (Staph) R. D. Webster, previously named Brachiaria decumbens Stapf), large crabgrass (Digitaria sanguinalis (L.) Scop.), green foxtail (Setaria viridis (L.) P. Beauv.), goosegrass (Eleusine indica (L.) Gaertn.), johnsongrass (Sorghum halepense (L.) Pers.), kochia (Kochia scoparia (L.) Schrad.), pitted morningglory (Ipomoea lacunosa L.), purple nutsedge (Cyperus rotundus L.), common ragweed (Ambrosia elatior L.), mustard (Brassica nigra (L.) W. D. J. Koch), guineagrass (Panicum maximum Jacq.), dallisgrass (Paspalum dilatatum Poir.), barnyardgrass (Echinochloa crus-galli (L). P. Beauv.), southern sandbur (Cenchrus echinatus L.), common sowthistle (Sonchus oleraceous L.), prickly sida (Sida spinosa L.), Italian ryegrass (Lolium multiflorum Lam.), common purslane (Portulaca oleracea L.), broadleaf signalgrass (Brachiaria platyphylla (Griseb.) Nash), common groundsel (Senecio vulgaris L.), common chickweed (Stellaria media (L.) Vill/Cyr.), tropical spiderwort (Commelina benghalensis L.), annual bluegrass (Poa annua L.), downy bromegrass (Bromus tectorum L.), itchgrass (Rottboellia cochinchinensis (L.) L.f.), quackgrass (Elytrigia repens (L.) Nevski), Canada horseweed (Erigeron Canadensis L.), field bindweed (Convolvulus arvensis L.), spotted spurge (Euphorbia maculata L.), common mallow (Malva sylvestris (=s silvestris) L.), and Russian thistle (Salsola kali L. ssp. Ruthenica (Iljin) Soo) were planted and treated preemergence with test chemicals formulated in a non-phytotoxic solvent mixture which included a surfactant.
At the same time, plants selected from these weed species were treated with postemergence applications of some of the test chemicals formulated in the same manner. Plants ranged in height from 2 to 18 cm (1- to 4-leaf stage) for postemergence treatments. Treated plants and controls were maintained in a greenhouse for 12 to 14 days, after which time all species were compared to controls and visually evaluated. Plant response ratings, summarized in Table E, are based on a scale of 0 to 100 where 0 is no effect and 100 is complete control. A dash (-) response means no test result.

Structure (SMILES): CCn1nc(C(C)(C)C)cc1C(=O)Nc1cc(C(=O)NCC2CC2)ccn1 [Compound 155]
- Plant response rating, Rice, Transplanted ([1]; 32 g ai/ha): 0
- Plant response rating, Rice, Transplanted ([1]; 64 g ai/ha): 0
- Plant response rating, Rice, Transplanted ([1]; 125 g ai/ha): 20
- Plant response rating, Rice, Transplanted ([1]; 250 g ai/ha): 30
- Plant response rating, Rice, Transplanted ([1]; 500 g ai/ha): 30
- Plant response rating, Ducksalad (ducksalad; 32 g ai/ha): 0
- Plant response rating, Ducksalad (ducksalad; 64 g ai/ha): 0
- Plant response rating, Ducksalad (ducksalad; 125 g ai/ha): 0
- Plant response rating, Ducksalad (ducksalad; 250 g ai/ha): 60
- Plant response rating, Ducksalad (ducksalad; 500 g ai/ha): 60
- Plant response rating, Barnyardgrass (barnyardgrass; 32 g ai/ha): 0
- Plant response rating, Barnyardgrass (barnyardgrass; 64 g ai/ha): 0
- Plant response rating, Barnyardgrass (barnyardgrass; 125 g ai/ha): 20
- Plant response rating, Barnyardgrass (barnyardgrass; 250 g ai/ha): 35
- Plant response rating, Barnyardgrass (barnyardgrass; 500 g ai/ha): 80
- Plant response rating, Flatsedge, Rice (rice flatsedge; 32 g ai/ha): 0
- Plant response rating, Flatsedge, Rice (rice flatsedge; 64 g ai/ha): 0
- Plant response rating, Flatsedge, Rice (rice flatsedge; 125 g ai/ha): 30
- Plant response rating, Flatsedge, Rice (rice flatsedge; 250 g ai/ha): 60
- Plant response rating, Flatsedge, Rice (rice flatsedge; 500 g ai/ha): 70
- Plant response rating, Junglerice (junglerice; 32 g ai/ha): 20
- Plant response rating, Junglerice (junglerice; 64 g ai/ha): 40
- Plant response rating, Junglerice (junglerice; 125 g ai/ha): 40
- Plant response rating, Junglerice (junglerice; 250 g ai/ha): 40
- Plant response rating, Junglerice (junglerice; 500 g ai/ha): 65

Structure (SMILES): CCn1nc(C(C)(C)C)cc1C(=O)Nc1cc(C(=O)N(C)C)ccn1 [Compound 156, 2-[[[3-(1,1-dimethylethyl)-1-ethyl-1H-pyrazol-5-yl]carbonyl]amino]-N,N-dimethyl-4-pyridinecarboxamide]
- Response of corn, With 1% naphthalic anhydride seed treatment ([2]; 62 g a.i./ha): 0
- Response of corn, Without naphthalic anhydride seed treatment ([2]; 62 g a.i./ha): 2
- Response of corn, With 1% naphthalic anhydride seed treatment ([2]; 125 g a.i./ha): 0
- Response of corn, Without naphthalic anhydride seed treatment ([2]; 125 g a.i./ha): 30
- Response of corn, With 1% naphthalic anhydride seed treatment ([2]; 250 g a.i./ha): 17
- Response of corn, Without naphthalic anhydride seed treatment ([2]; 250 g a.i./ha): 65
- Response of corn, With 1% naphthalic anhydride seed treatment ([2]; 500 g a.i./ha): 17
- Response of corn, Without naphthalic anhydride seed treatment ([2]; 500 g a.i./ha): 88

Structure (SMILES): CCN1N=C(C(C)(C)C)CC1C(=O)Nc1cc(C(=O)N(C)C)ccc1F (stereo not shown) [Compound 268, N-[5-[(dimethylamino)carbonyl]-2-fluorophenyl]-3-(1,1-dimethylethyl)-1-ethyl-4,5-dihydro-1H-pyrazole-5-carboxamide]
- Plant response rating, Beggarticks, Hairy (hairy beggarticks; 62 g ai/ha, scale 0 to 100): 40
- Plant response rating, Beggarticks, Hairy (hairy beggarticks; 125 g ai/ha, scale 0 to 100): 95
- Plant response rating, Beggarticks, Hairy (hairy beggarticks; 250 g ai/ha, scale 0 (no effect) to 100 (complete control)): 100
- Plant response rating, Beggarticks, Hairy (hairy beggarticks; 500 g ai/ha, scale 0 (no effect) to 100 (complete control)): 100
